The NIST ThermoML archive (doi:10.1021/je200637v)
± gives the expanded uncertainty stated by the source.

Assay: activity coefficient (dimensionless); of the first substance listed, at infinite dilution; xn = mol fraction of the nth substance listed
Settings: Liquid, Chromatography, x1 = 0

## C=O [methanal] + CCCCCCCCCC[N+](C)(C)C.O=S(=O)([N-]S(=O)(=O)C(F)(F)F)C(F)(F)F
322.85 K
  activity coefficient: 0.09 ± 0.04
332.65 K
  activity coefficient: 0.1 ± 0.04
343.15 K
  activity coefficient: 0.11 ± 0.04

## C=O [methanal] + CCCCCCCC[N+](C)(C)C.O=S(=O)([N-]S(=O)(=O)C(F)(F)F)C(F)(F)F
322.85 K
  activity coefficient: 0.1 ± 0.04
332.65 K
  activity coefficient: 0.11 ± 0.04
343.15 K
  activity coefficient: 0.12 ± 0.04

## C=O [methanal] + CCCCCCCC[N+](CCCCCCCC)(CCCCCCCC)CCCCCCCC.O=S(=O)([N-]S(=O)(=O)C(F)(F)F)C(F)(F)F
322.85 K
  activity coefficient: 0.07
332.65 K
  activity coefficient: 0.08
343.15 K
  activity coefficient: 0.09 ± 0.04

## C=O [methanal] + CCCC[N+](C)(CCCC)CCCC.O=S(=O)([N-]S(=O)(=O)C(F)(F)F)C(F)(F)F
322.85 K
  activity coefficient: 0.11 ± 0.04
332.65 K
  activity coefficient: 0.12 ± 0.04
343.15 K
  activity coefficient: 0.13 ± 0.04

## CO [methanol] + CCCCCCCCCC[N+](C)(C)C.O=S(=O)([N-]S(=O)(=O)C(F)(F)F)C(F)(F)F
322.85 K
  activity coefficient: 0.79 ± 0.03
332.65 K
  activity coefficient: 0.91 ± 0.03
343.15 K
  activity coefficient: 0.66 ± 0.03

## CO [methanol] + CCCCCCCC[N+](C)(C)C.O=S(=O)([N-]S(=O)(=O)C(F)(F)F)C(F)(F)F
322.85 K
  activity coefficient: 0.92 ± 0.03
332.65 K
  activity coefficient: 0.78 ± 0.03
343.15 K
  activity coefficient: 0.81 ± 0.03

## CO [methanol] + CCCCCCCC[N+](CCCCCCCC)(CCCCCCCC)CCCCCCCC.O=S(=O)([N-]S(=O)(=O)C(F)(F)F)C(F)(F)F
322.85 K
  activity coefficient: 0.65 ± 0.03
332.65 K
  activity coefficient: 0.76 ± 0.03
343.15 K
  activity coefficient: 0.82 ± 0.03

## CO [methanol] + CCCC[N+](C)(CCCC)CCCC.O=S(=O)([N-]S(=O)(=O)C(F)(F)F)C(F)(F)F
322.85 K
  activity coefficient: 0.96 ± 0.03
332.65 K
  activity coefficient: 0.75 ± 0.03
343.15 K
  activity coefficient: 0.88 ± 0.03

## CC1CCCCC1 [methylcyclohexane] + CCCCCCCCCC[N+](C)(C)C.O=S(=O)([N-]S(=O)(=O)C(F)(F)F)C(F)(F)F
322.85 K
  activity coefficient: 3.57 ± 0.16
332.65 K
  activity coefficient: 3.57 ± 0.16
343.15 K
  activity coefficient: 3.39 ± 0.15

## CC1CCCCC1 [methylcyclohexane] + CCCCCCCC[N+](C)(C)C.O=S(=O)([N-]S(=O)(=O)C(F)(F)F)C(F)(F)F
322.85 K
  activity coefficient: 5.23 ± 0.24
332.65 K
  activity coefficient: 4.93 ± 0.23
343.15 K
  activity coefficient: 4.6 ± 0.21

## CC1CCCCC1 [methylcyclohexane] + CCCCCCCC[N+](CCCCCCCC)(CCCCCCCC)CCCCCCCC.O=S(=O)([N-]S(=O)(=O)C(F)(F)F)C(F)(F)F
322.85 K
  activity coefficient: 1.07 ± 0.03
332.65 K
  activity coefficient: 1.06 ± 0.03
343.15 K
  activity coefficient: 1.05 ± 0.03

## CC1CCCCC1 [methylcyclohexane] + CCCC[N+](C)(CCCC)CCCC.O=S(=O)([N-]S(=O)(=O)C(F)(F)F)C(F)(F)F
322.85 K
  activity coefficient: 5.92 ± 0.27
332.65 K
  activity coefficient: 5.91 ± 0.27
343.15 K
  activity coefficient: 5.58 ± 0.26

## CC1CCCC1 [methylcyclopentane] + CCCCCCCCCC[N+](C)(C)C.O=S(=O)([N-]S(=O)(=O)C(F)(F)F)C(F)(F)F
322.85 K
  activity coefficient: 2.99 ± 0.14
332.65 K
  activity coefficient: 2.99 ± 0.14
343.15 K
  activity coefficient: 2.83 ± 0.13

## CC1CCCC1 [methylcyclopentane] + CCCCCCCC[N+](C)(C)C.O=S(=O)([N-]S(=O)(=O)C(F)(F)F)C(F)(F)F
322.85 K
  activity coefficient: 4.18 ± 0.19
332.65 K
  activity coefficient: 3.95 ± 0.18
343.15 K
  activity coefficient: 3.67 ± 0.17

## CC1CCCC1 [methylcyclopentane] + CCCCCCCC[N+](CCCCCCCC)(CCCCCCCC)CCCCCCCC.O=S(=O)([N-]S(=O)(=O)C(F)(F)F)C(F)(F)F
322.85 K
  activity coefficient: 0.98 ± 0.03
332.65 K
  activity coefficient: 0.97 ± 0.03
343.15 K
  activity coefficient: 0.97 ± 0.03

## CC1CCCC1 [methylcyclopentane] + CCCC[N+](C)(CCCC)CCCC.O=S(=O)([N-]S(=O)(=O)C(F)(F)F)C(F)(F)F
322.85 K
  activity coefficient: 4.75 ± 0.22
332.65 K
  activity coefficient: 4.74 ± 0.22
343.15 K
  activity coefficient: 4.5 ± 0.21

## C[N+](=O)[O-] [nitromethane] + CCCCCCCCCC[N+](C)(C)C.O=S(=O)([N-]S(=O)(=O)C(F)(F)F)C(F)(F)F
322.85 K
  activity coefficient: 0.56 ± 0.03
332.65 K
  activity coefficient: 0.58 ± 0.03
343.15 K
  activity coefficient: 0.55 ± 0.03

## C[N+](=O)[O-] [nitromethane] + CCCCCCCC[N+](C)(C)C.O=S(=O)([N-]S(=O)(=O)C(F)(F)F)C(F)(F)F
322.85 K
  activity coefficient: 0.6 ± 0.03
332.65 K
  activity coefficient: 0.58 ± 0.03
343.15 K
  activity coefficient: 0.55 ± 0.03

## C[N+](=O)[O-] [nitromethane] + CCCCCCCC[N+](CCCCCCCC)(CCCCCCCC)CCCCCCCC.O=S(=O)([N-]S(=O)(=O)C(F)(F)F)C(F)(F)F
322.85 K
  activity coefficient: 0.63 ± 0.03
332.65 K
  activity coefficient: 0.61 ± 0.03
343.15 K
  activity coefficient: 0.59 ± 0.03

## C[N+](=O)[O-] [nitromethane] + CCCC[N+](C)(CCCC)CCCC.O=S(=O)([N-]S(=O)(=O)C(F)(F)F)C(F)(F)F
322.85 K
  activity coefficient: 0.65 ± 0.03
332.65 K
  activity coefficient: 0.65 ± 0.03
343.15 K
  activity coefficient: 0.62 ± 0.03

## CCCCCCCCC [nonane] + CCCCCCCCCC[N+](C)(C)C.O=S(=O)([N-]S(=O)(=O)C(F)(F)F)C(F)(F)F
322.85 K
  activity coefficient: 8.87 ± 0.41
332.65 K
  activity coefficient: 8.63 ± 0.4
343.15 K
  activity coefficient: 7.61 ± 0.35

## CCCCCCCCC [nonane] + CCCCCCCC[N+](C)(C)C.O=S(=O)([N-]S(=O)(=O)C(F)(F)F)C(F)(F)F
322.85 K
  activity coefficient: 15.9 ± 0.74
332.65 K
  activity coefficient: 14.8 ± 0.68
343.15 K
  activity coefficient: 13.4 ± 0.62
